Test: Stability of azithromycin during the preparation steps (survival rate of AZT after preparation, HPLC)
Type: physicochemical
Details: pH of the azithromycin-containing aqueous solution less than 4.0
Description: Stability of the azithromycin-containing aqueous pharmaceutical compositions prepared in the above Examples and Comparative Examples were evaluated in terms of azithromycin concentration in the composition.
The compositions (Examples 1 to 8 and Comparative Examples 1 and 2) were packed in glass vial, sealed with a lid, and stored at 60° C. for one and two weeks. Then, azithromycin concentration in the composition just after packed in the glass vial and after the storage at 60° C. was determined by HPLC. Stability was evaluated as follows.
First, the azithromycin content added was compared with the azithromycin content in the composition just after packed in the glass vial to evaluate stability of azithromycin during the preparation steps. This is expressed by a survival rate of AZT after preparation wherein AZT means azithromycin.
The same procedures in Test Example 1 were repeated to evaluate stability of the compositions of Examples 9 to 12 and Comparative Example 3.
The similar procedures to Test Example 1 were repeated to evaluate stability of the compositions of Examples 18 to 20.

CC[C@H]1OC(=O)[C@H](C)[C@@H](O[C@H]2C[C@@](C)(OC)[C@@H](O)[C@H](C)O2)[C@H](C)[C@@H](O[C@@H]2O[C@H](C)C[C@H](N(C)C)[C@H]2O)[C@](C)(O)C[C@@H](C)CN(C)[C@H](C)[C@@H](O)[C@]1(C)O [azithromycin]
decomposition of azithromycin in aqueous solution: decomposed

From patent US8153601B2, “Azithromycin-containing aqueous pharmaceutical composition and a method for the preparation of the same” (Wakamoto Pharmaceutical Co., Ltd., priority 2004, dated 2012)
